Source: patent US20220378789A1, “METHODS OF ADMINISTERING ELAGOLIX IN ASSOCIATION WITH ARTIFICIAL REPRODUCTIVE TECHNOLOGIES” (priority 2021, published 2022)
Non-standard residues stand in square brackets, D forms with d. Residues, ends and D or L forms follow the SMILES beside them. d(hArg(Et2)) = CCN=C(NCC)NCCCC[C@@H](N)C(=O)O; hArg(Et2) = CCN=C(NCC)NCCCC[C@H](N)C(=O)O; dPhe(4-Cl) = N[C@H](Cc1ccc(Cl)cc1)C(=O)O; d2Nal = N[C@H](Cc1ccc2ccccc2c1)C(=O)O; d3Pal = N[C@H](Cc1cccnc1)C(=O)O

Tests used:
GnRH receptor [1] = biological target: T1, GnRH receptor (Homo sapiens, UniProt P30968); assay: Cohort study of oocyte donors in an assisted reproductive technology cycle: ovulation suppression during ovarian stimulation; type: in vivo; details: for premature ovulation: Elagolix 200 mg PO QHS vs Ganirelix 250 mcg SQ QHS, 75 donors per group; for Avg. Peak Estradiol / Avg. Peak LH / Avg. Peak Progesterone / Days of Stimulation / Avg. Matures Oocytes / Avg. Oocytes / Avg. Cum GN Dose: group mean; for Avg. Matures Oocytes: mature oocytes at retrieval; for Avg. Oocytes: oocytes retrieved; for Avg. Cum GN Dose: total gonadotropins consumed per cycle
T1 construct: from tissue; host or cells: anterior pituitary gland of the oocyte donors (in vivo)
T1 sequence (P30968 1-328): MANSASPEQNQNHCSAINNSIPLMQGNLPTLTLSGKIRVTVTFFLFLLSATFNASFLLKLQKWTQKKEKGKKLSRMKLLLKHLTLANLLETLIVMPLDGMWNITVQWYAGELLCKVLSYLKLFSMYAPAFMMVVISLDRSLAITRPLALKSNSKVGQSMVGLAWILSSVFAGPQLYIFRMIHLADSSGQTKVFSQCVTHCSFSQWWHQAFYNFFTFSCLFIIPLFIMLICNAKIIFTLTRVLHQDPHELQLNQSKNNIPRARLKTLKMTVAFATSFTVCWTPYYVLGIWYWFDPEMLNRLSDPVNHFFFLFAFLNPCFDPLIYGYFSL
Procedure: An example of a method of the present disclosure includes a Western IRB approved (WIRB® Protocol #20191163) cohort study of 75 oocyte donors undergoing an assisted reproductive technology cycle receiving Elagolix 200 mg PO QHS for ovulation suppression compared to 75 historical donors given Ganirelix 250 mcg SQ QHS. Ovarian stimulation involved 10 days of oral contraceptive pretreatment. A recombinant FSH (Gonal F) starting dosage was based on donor age, AMH and BMI. 20 U HCG addback was given throughout the cycle with antagonists administered with a lead follicle of greater than 14 mm. […] Secondary outcomes are the number of mature oocytes at oocyte retrieval, the maximum estradiol level, the total amount of gonadotropins consumed, and the number of injections and patient cost.
The study medication was an orally bioavailable GnRH antagonist marketed by ABBVIE under the brand name ORILISSA® (Elagolix). The 200 mg dose was administered orally with once daily dosing.
A study comprised 75 oocyte donors from whom data for 75 assisted reproductive technology cycles over the course of a two-year period was collected. Upon completion of data collection, a treatment group and an age and weight-matched control group were compared and assessed on the basis of demographic data, health history, ovarian reserve, and information regarding their ovarian stimulation cycles using Pearson χ2 and Student's t-tests. The primary outcome—premature ovulation rate—was evaluated using Chi squared tests. The secondary outcomes—number of mature oocytes, the maximum estradiol level, and the total amount of gonadotropins consumed—were compared using Student's t-tests.
Protocol for Oocyte Donation with Elagolix for Ovulation Suppression 1. Prospective donor accepted into FDA-accredited egg donation program after successful completion of screening and the signing of the medical consent forms. 2. Oocyte donor given opportunity to volunteer to participate in the study. Oocyte donor given an IRB approved informed consent document and HIPAA authorization for Oocyte Donation with Elagolix for Ovulation Suppression Protocol. 3. Oocyte donor begins oral contraceptives to lead into ovarian stimulation. 4. Oocyte donor discontinues oral contraceptives after 10 to 14 days of administration. 5. 3 days after discontinuing oral contraceptives, oocyte donor begins daily SQ injections of rFSH with the dose based upon age, follicle stimulating hormone (FSH), antimullerian hormone (AMH) and antral follicular count. 6. On day 4 of rFSH medications, the practitioner obtains an estradiol level from an oocyte donor. The rFSH dose will be adjusted as necessary. 7. At 2 to 3 days intervals of medications, the practitioner obtains an estradiol level and performs a transvaginal ultrasound for oocyte donor; an rFSH dose will be adjusted according to the results of the estradiol level and transvaginal ultrasound. 8. Once a 14 mm lead follicle is noted on the ultrasound, the practitioner administers 20 U per day of SQ hCG along with Elagolix 200 mg PO QD, taken at 10 pm. Elagolix is administered for a minimum of 1 day and a maximum of 6 days. 9. Administration of Elagolix 200 mg PO QD is discontinued 24 hours prior to the ovulatory, GnRH agonist trigger. 10. Ovarian stimulation is continued as outlined until oocyte maturity is reached based on follicular number, follicular size, cycle day and estradiol levels, at which time an ovulatory, GnRH agonist was used to induce ovulation and egg retrieval was performed per protocol. All mature eggs are either fertilized with the intended parent's sperm or cryopreserved for future used in egg donation.

GnRH receptor [2] = biological target: T1, GnRH receptor; details: cited from earlier work
[3] = oral administration; cited from earlier work

With `CCN=C(NCC)NCCCC[C@H](NC(=O)[C@H](CC(C)C)NC(=O)[C@@H](CCCCNC(=NCC)NCC)NC(=O)[C@H](Cc1ccc(O)cc1)NC(=O)[C@H](CO)NC(=O)[C@@H](Cc1cccnc1)NC(=O)[C@@H](Cc1ccc(Cl)cc1)NC(=O)[C@@H](Cc1ccc2ccccc2c1)NC(C)=O)C(=O)N1CCC[C@H]1C(=O)N[C@H](C)C(N)=O` [Ganirelix] (Ac-[d2Nal][dPhe(4-Cl)][d3Pal]SY[d(hArg(Et2))]L[hArg(Et2)]P[dA]-NH2) the premature ovulation (GnRH receptor [1]) was “no instances of premature ovulation”, the “Avg. Peak Estradiol” value (GnRH receptor [1]) was 3764 and the “Avg. Peak LH” value (GnRH receptor [1]) was 1.3. The “Avg. Peak Progesterone” value (GnRH receptor [1]) was 2.3, the “Days of Stimulation” value (GnRH receptor [1]) was 10.06 and the “Avg. Matures Oocytes” value (GnRH receptor [1]) was 25.42. For the same molecule, the “Avg. Oocytes” value (GnRH receptor [1]) was 30.55 and the “Avg. Cum GN Dose” value (GnRH receptor [1]) was 2741.
In the case of `COc1cccc(-c2c(C)n(Cc3c(F)cccc3C(F)(F)F)c(=O)n(C[C@H](NCCCC(=O)[O-])c3ccccc3)c2=O)c1F.[Na+]` [Elagolix, 4-((R)-2-[5-(2-fluoro-3-methoxy-phenyl)-3-(2-fluoro-6-trifluoromethyl-benzyl)-4-methyl-2,6-dioxo-3,6-dihydro-2H-pyrimidin-1-yl]-1-phenyl-ethylamino)-butyric acid sodium salt], the LH levels (GnRH receptor [2]; 4 hours after administration of a single dose) is listed as 22-35 % baseline, the “time for LH concentrations to rebound to about baseline levels or above” value (GnRH receptor [2]; after the last dose, all dose levels) is listed as 24 to 48 h and the anovulatory concentrations (GnRH receptor [2]; all participants at doses of 100 mg BID or higher, maintained throughout the 7-day study with daily dosing) is listed as “Anovulatory concentrations were observed in all participants”. For the same molecule, the “estradiol concentration at maximum suppression” value (GnRH receptor [2]; all participants at doses of 200 mg BID and higher) was ~11.8 pg/mL, the “estradiol remaining partially suppressed” value (GnRH receptor [2]; at 24 hours, most groups) was 42-65 % of baseline and the safety profile (GnRH receptor [2]; doses up to 400 mg twice per day (BID)) was “acceptable safety profile”. The adverse events (GnRH receptor [2]; healthy premenopausal women) was “No clinically significant adverse events occurred”, the tolerability (GnRH receptor [2]; healthy premenopausal women) was “well tolerated” and the “dose giving maximum inhibition of LH” value (GnRH receptor [2]; more sustained suppression at higher doses) was ≥ 200 mg BID. For the same molecule, the “estimated half-life (t1/2)” value [3] was 4 to 6 h, the “median time of maximum plasma concentration (Tmax)” value [3] was 0.5 to 1 h and the premature ovulation (GnRH receptor [1]) was “no instances of premature ovulation”. For the same molecule, the “Avg. Peak Estradiol” value (GnRH receptor [1]) was 3959, the “Avg. Peak LH” value (GnRH receptor [1]) was 0.94 and the “Avg. Peak Progesterone” value (GnRH receptor [1]) was 1.9. For the same molecule, the “Days of Stimulation” value (GnRH receptor [1]) was 10.49, the “Avg. Matures Oocytes” value (GnRH receptor [1]) was 24.73 and the “Avg. Oocytes” value (GnRH receptor [1]) was 30.31. The “Avg. Cum GN Dose” value (GnRH receptor [1]) was 2855.
